Measured values published in patent US20220304978A1, “INHIBITING MESANGIAL CELL ACTIVATION” (Chinook Therapeutics, Inc., priority 2019, published 2022).

What was measured:
[1] = test system: kidney tissue of g-ddY mice; assay: Ingenuity Pathway Analysis (IPA) canonical pathways, g-ddY kidney RNA-seq; type: in vivo, mouse; settings: 30 mg/kg/day
g-ddY mice = assay: UACR (albuminuria) in g-ddY mouse model of IgA nephropathy; type: in vivo
From the text: The grouped ddY (g-ddY) mouse is a spontaneous model of early-onset IgA nephropathy characterized by IgA immune complex deposition in the mesangium of the kidney, leading to significant proteinuria, glomerular hypercellularity, mesangioproliferative glomerular lesions, glomerular sclerosis and reduced kidney function, all hallmarks of human IgA nephropathy (J Am Soc Nephrol 23: 1364-1374, 2012). Consistent with human IgA nephropathy, the mesangial IgA deposits in the g-ddY mouse are also accompanied by deposition of IgG and complement C3.

[2] = test system: kidney tissue of g-ddY mice; assay: Gene Set Enrichment Analysis (GSEA) hallmark gene sets, g-ddY kidney RNA-seq; type: in vivo, mouse; settings: 30 mg/kg/day
[3] = 20 and 30 mg/kg/day, approximately 5 days

## CCCCN(CCCC)C(=O)CN1C[C@H](c2ccc3c(c2)OCO3)[C@@H](C(=O)O)[C@@H]1c1ccc(OC)cc1 [atrasentan, (2R,3R,4S)-4-(1,3-benzodioxol-5-yl)-1-[2-(dibutylamino)-2-oxoethyl]-2-(4-methoxyphenyl)pyrrolidine-3-carboxylic acid]
[1]
  IL-6 signaling: reduced
  NF-κB signaling: reduced
  PDGF signaling: reduced
g-ddY mice; 10 mg/kg/day
  effect to reduce UACR from baseline compared to the control group: not significant
g-ddY mice; 10 mg/kg/day, approximately 5 days
  albuminuria compared to baseline: not significantly changed from baseline
g-ddY mice; 20 mg/kg/day, P=0.0498, un-paired t-test
  effect to reduce UACR from baseline compared to the control group: statistically significant
g-ddY mice; 20 mg/kg/day, approximately 5 days, P=0.0593
  albuminuria compared to baseline: reduced from baseline to a similar extent
g-ddY mice; 30 mg/kg/day, P=0.029
  effect to reduce UACR from baseline compared to the control group: statistically significant
g-ddY mice; 30 mg/kg/day, approximately 5 days, paired t-test
  albuminuria compared to baseline: significantly (P=0.0002, paired two-sided t-test) reduced
g-ddY mice; [3]
  albuminuria compared to control g-ddY mice: significantly reduced
  albuminuria lowering, reduction from baseline: > 60%
[2]
  cell proliferation associated signaling (mitotic spindle and G2M checkpoint): reduced
  inflammatory response signaling: reduced
